Key:
BCRP = BCRP (Homo sapiens (Human), UniProt Q9UNQ0); test: BCRP MDCKII efflux assay (Assay 7); type: in vitro ADME; settings: dog; efflux ratio Papp(B-A)/Papp(A-B), BCRP MDCKII cells; read-out: Assay 7 Pe Ratio
Protocol: Assay conditions included with and without the BCRP-specific inhibitor, KO143, at a concentration of 0.3 μM to ascertain the contribution of BCRP to the efflux value of the test compound.
Final organic concentration in the assay was 1%.

EGFR wild type (EGFR WT) = EGFR wild type (EGFR WT) (Homo sapiens (Human), UniProt P00533); test: Cellular Phosphorylation Assay, Assay 5 (EGF-stimulated EGFR phosphorylation, NIH 3T3 cells); type: cell-based
Sequence of EGFR wild type (EGFR WT) (P00533 25-1210): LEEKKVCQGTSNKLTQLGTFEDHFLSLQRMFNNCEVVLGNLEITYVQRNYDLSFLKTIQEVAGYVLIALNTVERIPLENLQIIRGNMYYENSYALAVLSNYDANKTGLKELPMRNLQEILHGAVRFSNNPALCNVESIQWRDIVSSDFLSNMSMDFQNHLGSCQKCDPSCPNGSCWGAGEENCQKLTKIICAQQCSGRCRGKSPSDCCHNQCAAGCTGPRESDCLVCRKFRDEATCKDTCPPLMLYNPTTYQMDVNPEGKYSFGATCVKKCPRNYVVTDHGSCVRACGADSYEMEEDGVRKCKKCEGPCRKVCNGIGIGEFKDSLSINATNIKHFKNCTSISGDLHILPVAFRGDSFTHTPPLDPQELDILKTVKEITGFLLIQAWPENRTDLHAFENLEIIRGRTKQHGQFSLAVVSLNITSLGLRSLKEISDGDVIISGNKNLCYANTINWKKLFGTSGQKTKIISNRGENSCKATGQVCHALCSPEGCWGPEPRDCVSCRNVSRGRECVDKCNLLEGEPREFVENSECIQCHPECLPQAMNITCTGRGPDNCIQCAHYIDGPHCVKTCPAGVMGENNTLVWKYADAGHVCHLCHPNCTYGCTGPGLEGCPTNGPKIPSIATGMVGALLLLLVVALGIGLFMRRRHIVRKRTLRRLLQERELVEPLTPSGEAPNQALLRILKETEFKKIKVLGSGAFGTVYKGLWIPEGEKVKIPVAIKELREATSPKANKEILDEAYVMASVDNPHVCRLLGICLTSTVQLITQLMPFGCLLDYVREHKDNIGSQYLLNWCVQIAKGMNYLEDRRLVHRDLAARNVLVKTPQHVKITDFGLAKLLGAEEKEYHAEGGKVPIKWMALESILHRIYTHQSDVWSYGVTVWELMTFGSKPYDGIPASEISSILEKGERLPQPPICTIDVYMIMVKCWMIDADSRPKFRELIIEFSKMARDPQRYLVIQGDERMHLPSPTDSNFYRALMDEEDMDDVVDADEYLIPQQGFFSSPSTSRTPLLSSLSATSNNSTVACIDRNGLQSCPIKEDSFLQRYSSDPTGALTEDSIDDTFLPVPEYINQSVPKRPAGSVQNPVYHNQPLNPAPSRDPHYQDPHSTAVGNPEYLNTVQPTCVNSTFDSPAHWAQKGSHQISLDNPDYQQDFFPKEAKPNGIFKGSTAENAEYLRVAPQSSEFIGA

ErbB2 WT = ErbB2 WT (Homo sapiens (Human), UniProt P04626); test: ErbB Enzyme Assay (HTRF KinEASE-TK), Assay 2; type: biochemical
EGFR = EGFR (Homo sapiens (Human), UniProt P00533); test: ErbB Enzyme Assay (HTRF KinEASE-TK), Assay 3; type: biochemical
Sequence of EGFR (P00533 25-1210): as above

[1] = molecular target: ErbB2 with Exon 20 YVMA insertion (HER2-YVMA) (Homo sapiens (Human), UniProt P04626, INS775YVMA); test: Cellular Phosphorylation Assay, Assay 4 (constitutive ErbB2 phosphorylation, NIH 3T3 cells); type: cell-based
Sequence of ErbB2 with Exon 20 YVMA insertion (HER2-YVMA) (P04626 other isoform, or with tags, fused parts or gaps ins YVMA behind 775): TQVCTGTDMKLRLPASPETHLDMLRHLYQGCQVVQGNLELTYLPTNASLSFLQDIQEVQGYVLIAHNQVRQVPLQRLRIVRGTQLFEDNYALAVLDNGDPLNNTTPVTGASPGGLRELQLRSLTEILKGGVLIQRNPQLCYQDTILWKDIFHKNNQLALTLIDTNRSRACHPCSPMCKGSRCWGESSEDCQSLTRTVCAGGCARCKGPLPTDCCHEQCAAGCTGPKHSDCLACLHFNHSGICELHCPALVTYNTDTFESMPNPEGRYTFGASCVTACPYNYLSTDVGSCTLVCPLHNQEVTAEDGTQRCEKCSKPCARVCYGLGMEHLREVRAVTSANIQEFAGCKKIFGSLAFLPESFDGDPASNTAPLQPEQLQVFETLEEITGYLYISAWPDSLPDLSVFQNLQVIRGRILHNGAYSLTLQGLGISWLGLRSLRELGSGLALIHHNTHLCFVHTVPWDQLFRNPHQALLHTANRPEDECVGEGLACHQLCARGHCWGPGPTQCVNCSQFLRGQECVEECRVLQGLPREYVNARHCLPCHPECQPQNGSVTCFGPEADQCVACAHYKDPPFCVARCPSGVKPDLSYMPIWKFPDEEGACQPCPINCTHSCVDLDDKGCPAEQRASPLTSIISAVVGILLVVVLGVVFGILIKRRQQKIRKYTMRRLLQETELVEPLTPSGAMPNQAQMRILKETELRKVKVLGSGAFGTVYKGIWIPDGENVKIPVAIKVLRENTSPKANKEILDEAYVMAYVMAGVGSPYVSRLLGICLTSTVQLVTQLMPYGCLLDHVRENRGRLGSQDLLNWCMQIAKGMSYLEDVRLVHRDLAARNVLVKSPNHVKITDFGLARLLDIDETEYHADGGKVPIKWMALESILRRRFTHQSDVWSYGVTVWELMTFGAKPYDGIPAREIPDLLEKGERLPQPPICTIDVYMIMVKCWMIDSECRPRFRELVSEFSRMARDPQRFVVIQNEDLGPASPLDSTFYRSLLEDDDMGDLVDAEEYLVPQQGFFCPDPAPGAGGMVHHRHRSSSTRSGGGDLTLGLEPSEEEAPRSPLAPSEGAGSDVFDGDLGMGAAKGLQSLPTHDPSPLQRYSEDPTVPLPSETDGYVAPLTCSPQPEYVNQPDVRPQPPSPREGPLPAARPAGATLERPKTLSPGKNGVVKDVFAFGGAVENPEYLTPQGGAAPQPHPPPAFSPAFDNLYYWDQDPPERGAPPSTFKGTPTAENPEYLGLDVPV

[2] = cellular EGFR WT phosphorylation, EGF-stimulated
[3] = cellular ErbB2 YVMA phosphorylation
[4] = EGF-stimulated EGFR WT phosphorylation

Sequence of BCRP (Q9UNQ0 whole entry): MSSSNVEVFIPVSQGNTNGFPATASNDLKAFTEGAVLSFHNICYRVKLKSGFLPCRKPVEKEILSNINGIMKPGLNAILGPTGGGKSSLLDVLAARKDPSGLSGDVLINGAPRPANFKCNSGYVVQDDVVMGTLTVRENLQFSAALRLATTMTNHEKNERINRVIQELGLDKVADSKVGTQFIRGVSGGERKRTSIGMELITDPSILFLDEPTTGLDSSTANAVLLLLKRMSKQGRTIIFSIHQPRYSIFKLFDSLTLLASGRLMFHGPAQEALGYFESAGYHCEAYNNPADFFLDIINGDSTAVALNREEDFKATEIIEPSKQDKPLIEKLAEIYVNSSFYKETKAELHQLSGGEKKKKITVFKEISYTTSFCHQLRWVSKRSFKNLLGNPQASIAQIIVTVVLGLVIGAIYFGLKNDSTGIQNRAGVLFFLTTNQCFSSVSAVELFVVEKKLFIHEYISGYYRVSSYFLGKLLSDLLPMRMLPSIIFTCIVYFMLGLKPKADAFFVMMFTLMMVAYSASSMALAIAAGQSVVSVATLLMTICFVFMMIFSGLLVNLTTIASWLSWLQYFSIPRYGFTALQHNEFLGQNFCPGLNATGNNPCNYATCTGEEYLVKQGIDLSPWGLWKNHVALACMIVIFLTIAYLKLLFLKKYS

SMILES | efflux ratio at 2 h, 1 µM (BCRP) | IC50 (EGFR wild type (EGFR WT); [2]) [nM] | IC50 (ErbB2 WT; ErbB2 WT enzyme assay) [nM] | IC50 (EGFR; EGFR enzyme assay) [nM] | IC50 [1, 3] [nM] | IC50 (EGFR wild type (EGFR WT); [4]) [nM] | IC50 (ErbB2 WT; ErbB2 WT enzyme) [nM] | IC50 (EGFR; EGFR enzyme) [nM] | IC50 ([1]; ErbB2 YVMA phosphorylation) [nM]
C=CC(=O)N1[C@H](C)CN(c2ccc3ncnc(Nc4ccc(Oc5cc(F)c6c(c5)ncn6C)c(C)c4)c3n2)C[C@@H]1C [Example 359] | 14.4 | ≥ 5000 | 47.2 | 3370 | 21 |  |  |  | 
C=CC(=O)N1CCN(c2ccc3ncnc(Nc4ccc(Oc5ccn6ncnc6c5)c(C)c4F)c3n2)C[C@H]1COC [Example 358] | 8.5 | 83.2 | 10 | 237 | 2.9 |  |  |  | 
C=CC(=O)N1C[C@H]2C[C@@H]1[C@H](c1ccc3ncnc(Nc4ccc(Oc5ccn6ncnc6c5)c(C)c4)c3n1)C2 [Example 405] | 13.7 | 4550 | 19.5 | 1640 | 17.2 |  |  |  | 
C=CC(=O)N1C2CC1CN(c1ccc3ncnc(Nc4cc(C)c(Oc5ccc6c(c5)ncn6C)cc4F)c3n1)C2 [Example 48, 1-(3-(4-((2-fluoro-5-methyl-4-((1-methyl-1H-benzo[d]imidazol-5-yl)oxy)phenyl)amino)pyrido[3,2-d]pyrimidin-6-yl)-3,6-diazabicyclo[3.1.1]heptan-6-yl)prop-2-en-1-one] | 10.2 |  |  |  |  | ≥ 5000 | 264 | ≥ 10000 | 16.6
C=CC(=O)N1C[C@@H]2C[C@H]1CN(c1ccc3ncnc(Nc4cc(Cl)c(Oc5ccc6c(c5)ncn6C)cc4F)c3n1)C2 [Example 248] | 15.2 |  |  |  |  | ≥ 5000 | 108 | ≥ 10000 | 14.4
C=CC(=O)N1CC2CC(C1)N2c1ccc2ncnc(Nc3ccc(Oc4ccc5c(c4)ncn5C)c(C)c3F)c2n1 [Example 335] | 3 | ≥ 5000 | 164 | ≥ 10000 | 15.4 |  |  |  | 
C=CC(=O)N1C[C@H]2C[C@@H]1[C@H](c1ccc3ncnc(Nc4ccc(Oc5cnc6c(c5)ncn6C)c(C)c4)c3n1)C2 [Example 407] | 16 | ≥ 5000 | 38 | 1510 | 20.4 |  |  |  | 
C=CC(=O)N1C[C@H]2CN(c3ccc4ncnc(Nc5ccc(Oc6ccc7c(c6)ncn7C)c(C)c5)c4n3)C[C@H]21 [Example 116, 1-((1R,5S)-3-(4-((3-methyl-4-((1-methyl-1H-benzo[d]imidazol-5-yl)oxy)phenyl)amino)pyrido[3,2-d]pyrimidin-6-yl)-3,6-diazabicyclo[3.2.0]heptan-6-yl)prop-2-en-1-one] | 22.4 |  |  |  |  | 1580 | 52.3 | 2580 | 10.2
C=CC(=O)N1CCN(c2ccc3ncnc(Nc4cc(C)c(Oc5ccc6c(c5)ncn6C)cc4F)c3n2)CC12CC2 [Example 340] | 8.9 | 2020 | 19.5 | 881 | 19.6 |  |  |  | 
C=CC(=O)N1CCN(c2nc3c(Oc4ccc(Oc5ccc6c(c5)ncn6C)c(C)c4)ncnc3cc2OC)CC1 [Example 41, 1-(4-(7-methoxy-4-(3-methyl-4-((1-methyl-1H-benzo[d]imidazol-5-yl)oxy)phenoxy)pyrido[3,2-d]pyrimidin-6-yl)piperazin-1-yl)prop-2-en-1-one] | 16.7 |  |  |  |  | ≥ 5000 | 130 | 5070 | 31
C=CC(=O)N1CCC(c2ccc3ncnc(Nc4ccc(Oc5ccc6c(c5)ncn6C)c(C)c4)c3n2)C1 (racemic) [Example 120, rac-(R)-1-(3-(4-((3-methyl-4-((1-methyl-1H-benzo[d]imidazol-5-yl)oxy)phenyl)amino)pyrido[3,2-d]pyrimidin-6-yl)pyrrolidin-1-yl)prop-2-en-1-one] | 15.8 |  |  |  |  | ≥ 5000 | 42 | 7270 | 8.4
CC#CC(=O)N1C[C@@H]2CC[C@H]1CN2c1ccc2ncnc(Nc3ccc(Oc4ccn5ncnc5c4)c(C)c3F)c2n1 [Example 333] | 6.8 | 2130 | 155 |  | 31 |  |  |  | 
C=CC(=O)N1CCCN(c2nc3c(Nc4ccc(Oc5ccn6ncnc6c5)c(Cl)c4F)ncnc3cc2OC)CC1 [Example 153, 1-(4-(4-((4-([1,2,4]triazolo[1,5-a]pyridin-7-yloxy)-3-chloro-2-fluorophenyl)amino)-7-methoxypyrido[3,2-d]pyrimidin-6-yl)-1,4-diazepan-1-yl)prop-2-en-1-one] |  |  |  |  |  | 1790 | 4 | 265 | 38.3
C=CC(=O)N1CCC(Oc2ccc3ncnc(Nc4ccc(Oc5cnn6c(C)cnc6c5)c(Cl)c4F)c3n2)CC1 [Example 53, 1-(4-((4-((3-chloro-2-fluoro-4-((3-methylimidazo[1,2-b]pyridazin-7-yl)oxy)phenyl)amino)pyrido[3,2-d]pyrimidin-6-yl)oxy)piperidin-1-yl)prop-2-en-1-one] |  |  |  |  |  | 1240 | 99.1 | 1450 | 41.1
C=CC(=O)N1CCN(c2ccc3ncnc(Nc4ccc(Oc5ccc6c(c5)ncn6C)c(C)c4F)c3n2)CC12CC2 [Example 339] |  | 361 | 14.1 | ≥ 10000 | 16.4 |  |  |  | 
C=CC(=O)N1CCN(c2ccc3ncnc(Nc4cc(C)c(Oc5ccn6ncnc6c5)cc4F)c3n2)C[C@@H]1C1CC1 [Example 284] |  | ≥ 5000 | 24.9 | ≥ 10000 | 67.9 |  |  |  | 
C=CC(=O)N1CC[C@H]2C[C@@H]1CN2c1ccc2ncnc(Nc3ccc(Oc4ccn5ncnc5c4)c(Cl)c3F)c2n1 [Example 436] |  | ≥ 5000 | 36.3 | 1920 | 459 |  |  |  | 
C=CC(=O)N1CC(Sc2ccc3ncnc(Nc4ccc(Oc5ccc6c(c5)ncn6C)c(C)c4F)c3n2)C1 [Example 61, 1-(3-((4-((2-fluoro-3-methyl-4-((1-methyl-1H-benzo[d]imidazol-5-yl)oxy)phenyl)amino)pyrido[3,2-d]pyrimidin-6-yl)thio)azetidin-1-yl)prop-2-en-1-one] |  |  |  |  |  | 976 | 16.3 | 283 | 34.4
C=CC(=O)N1CC[C@H](c2ccc3ncnc(Nc4ccc(Oc5ccn6ncnc6c5)c(C)c4F)c3n2)CC1(C)C (racemic) [Example 314] |  | ≥ 5000 | 59.4 | 5550 | 124 |  |  |  | 
C=CC(=O)N1CCN(c2ccc3ncnc(Nc4ccc(Oc5ccc6scnc6c5)c(C)c4F)c3n2)CC1(C)C [Example 243, 1-(4-(4-((4-(benzo[d]thiazol-5-yloxy)-2-fluoro-3-methylphenyl)amino)pyrido[3,2-d]pyrimidin-6-yl)-2,2-dimethylpiperazin-1-yl)prop-2-en-1-one] |  |  |  |  |  | 666 | 338 | 1210 | 50.2
C=CC(=O)N1CCN(c2ccc3ncnc(Nc4ccc(Oc5ccn6ncnc6c5)c(Cl)c4F)c3n2)C[C@@H]1C(C)C [Example 293] |  | ≥ 5000 | 50.5 | 2330 | 21.2 |  |  |  | 
C=CC(=O)N1C[C@H]2CC[C@@H]1C[C@@H]2c1ccc2ncnc(Nc3ccc(Oc4ccn5ncnc5c4)c(C)c3F)c2n1 (single isomer, unassigned) [Example 234] |  |  |  |  |  | 875 | 37.3 | 960 | 33
C=CC(=O)N1[C@@H]2CC[C@H]1[C@H](c1ccc3ncnc(Nc4cc(C)c(Oc5ccn6ncnc6c5)cc4F)c3n1)C2 [Example 392] |  | ≥ 5000 | 9.8 | 1480 | 82 |  |  |  | 
C=CC(=O)N1CC2CCC(C1)N2c1ccc2ncnc(Nc3ccc(Oc4ccn5ncnc5c4)c(Cl)c3F)c2n1 [Example 445] |  | 60.1 | 4.7 | 33.6 | 5.7 |  |  |  | 
CC#CC(=O)N1CC[C@@H]2C[C@H]1CN2c1ccc2ncnc(Nc3cc(Cl)c(Oc4ccn5ncnc5c4)cc3F)c2n1 [Example 315] |  | ≥ 5000 | 119 | ≥ 10000 | 68.8 |  |  |  | 
CC#CC(=O)N1CCN(c2ccc3ncnc(Nc4ccc(Oc5ccn6ncnc6c5)c(C)c4F)c3n2)C[C@@H]1C(F)F (racemic) [Example 168, rac-1-(4-(4-((4-([1,2,4]triazolo[1,5-a]pyridin-7-yloxy)-2-fluoro-3-methylphenyl)amino)pyrido[3,2-d]pyrimidin-6-yl)-2-(difluoromethyl)piperazin-1-yl)but-2-yn-1-one] |  |  |  |  |  | 356 | 74.3 | 1790 | 16.5
C=CC(=O)N1[C@@H]2CC[C@H]1C[C@@H](c1ccc3ncnc(Nc4cc(C)c(Oc5ccn6ncnc6c5)cc4F)c3n1)C2 [Example 206, 1-((1R,3r,5S)-3-(4-((4-([1,2,4]triazolo[1,5-a]pyridin-7-yloxy)-2-fluoro-5-methylphenyl)amino)pyrido[3,2-d]pyrimidin-6-yl)-8-azabicyclo[3.2.1]octan-8-yl)prop-2-en-1-one] |  |  |  |  |  | ≥ 5000 | 151 | 4770 | 115

From US12447153B2, “HER2 mutation inhibitors” (Array BioPharma Inc., priority 2021, dated 2025)
